Numbers after ± are expanded uncertainties.
Test: xn = mol fraction of the nth substance listed
Conditions: 318.15 K, 101.3 kPa, Liquid, Alternating current cell with electrodes

| Structure (SMILES) | electrical conductivity (x1 = 1) | electrical conductivity (x2 = 0.05) | electrical conductivity (x2 = 0.1) | electrical conductivity (x2 = 0.2001) | electrical conductivity (x2 = 0.2999) | electrical conductivity (x2 = 0.4) | electrical conductivity (x2 = 0.5002) | electrical conductivity (x2 = 0.5998) | electrical conductivity (x2 = 0.7) | electrical conductivity (x2 = 0.8) | electrical conductivity (x2 = 0.8999) | further results |
| --- | --- | --- | --- | --- | --- | --- | --- | --- | --- | --- | --- | --- |
| CCCC[n+]1ccn(C)c1.O=S(=O)([N-]S(=O)(=O)C(F)(F)F)C(F)(F)F + CC1COC(=O)O1 | 0.877 ± 0.009 S/m |  |  |  |  |  |  |  |  |  |  |  |
| CCCC[n+]1ccn(C)c1.O=S(=O)([N-]S(=O)(=O)C(F)(F)F)C(F)(F)F + COC(=O)OC | 0.877 ± 0.009 S/m |  |  |  |  |  |  |  |  |  |  | electrical conductivity (x1 = 0.05): 0.587 ± 0.023 S/m; electrical conductivity (x1 = 0.1): 1.36 ± 0.021 S/m; electrical conductivity (x1 = 0.2001): 2.12 ± 0.022 S/m; electrical conductivity (x1 = 0.2999): 2.14 ± 0.021 S/m; electrical conductivity (x1 = 0.4): 1.93 ± 0.02 S/m; electrical conductivity (x1 = 0.5002): 1.68 ± 0.017 S/m; electrical conductivity (x1 = 0.5998): 1.42 ± 0.015 S/m; electrical conductivity (x1 = 0.7): 1.23 ± 0.013 S/m; electrical conductivity (x1 = 0.8): 1.08 ± 0.011 S/m; electrical conductivity (x1 = 0.8999): 0.965 ± 0.01 S/m |
| CCCC[n+]1ccn(C)c1.O=S(=O)([N-]S(=O)(=O)C(F)(F)F)C(F)(F)F + O=C1CCCO1 | 0.877 ± 0.009 S/m |  |  |  |  |  |  |  |  |  |  |  |
| CCCC[n+]1ccn(C)c1.O=S(=O)([N-]S(=O)(=O)C(F)(F)F)C(F)(F)F + O=C1OCCO1 | 0.877 ± 0.009 S/m |  |  |  |  |  |  |  |  |  |  |  |
| CC1COC(=O)O1 (centres undefined) [4-methyl-1,3-dioxolan-2-one] + CCCC[n+]1ccn(C)c1.O=S(=O)([N-]S(=O)(=O)C(F)(F)F)C(F)(F)F |  | 1.08 ± 0.026 S/m | 1.51 ± 0.017 S/m | 1.75 ± 0.018 S/m | 1.68 ± 0.017 S/m | 1.53 ± 0.016 S/m | 1.36 ± 0.014 S/m | 1.224 ± 0.012 S/m | 1.114 ± 0.011 S/m | 1.009 ± 0.01 S/m | 0.924 ± 0.009 S/m |  |
| O=C1OCCO1 [ethylene carbonate] + CCCC[n+]1ccn(C)c1.O=S(=O)([N-]S(=O)(=O)C(F)(F)F)C(F)(F)F |  | 1.36 ± 0.033 S/m | 1.87 ± 0.02 S/m | 2.06 ± 0.021 S/m | 1.908 ± 0.019 S/m | 1.7 ± 0.017 S/m | 1.504 ± 0.015 S/m | 1.313 ± 0.013 S/m | 1.17 ± 0.012 S/m | 1.07 ± 0.011 S/m | 0.965 ± 0.01 S/m |  |
| O=C1CCCO1 [γ-butyrolactone] + CCCC[n+]1ccn(C)c1.O=S(=O)([N-]S(=O)(=O)C(F)(F)F)C(F)(F)F |  | 1.43 ± 0.034 S/m | 1.95 ± 0.021 S/m | 2.13 ± 0.021 S/m | 1.96 ± 0.02 S/m | 1.72 ± 0.018 S/m | 1.506 ± 0.015 S/m | 1.307 ± 0.013 S/m | 1.16 ± 0.012 S/m | 1.03 ± 0.011 S/m | 0.937 ± 0.009 S/m |  |

Reference: the NIST ThermoML archive (doi:10.1021/acs.jced.7b00646)
